# Values quoted from earlier work as cited in US20100029729A1, “COMPOUNDS” (priority 2008, published 2010).
# Key:
# [1] = clinical studies, first 24 hours of treatment
# circulating lymphocytes = conditions: animals and man
compound,measurement,setting,value
CCCCCCCCc1ccc(CCC(N)(CO)CO)cc1 [FTY720],bradycardia,[1],results in bradycardia in the first 24 hours of treatment
same,effect on circulating lymphocytes,circulating lymphocytes,reduce circulating lymphocytes in animals and man
